Results published in article PMC10747725, “The Synthesis, In Vitro Bio-Evaluation, and In Silico Molecular Docking Studies of Pyrazoline–Thiazole Hybrid Analogues as Promising Anti-α-Glucosidase and Anti-Urease Agents” (Pharmaceuticals, 2023).
Like-named read-outs stand apart in the source and are kept apart here.

Assays:
[1] = molecular target: α-glucosidase; assay: α-Glucosidase inhibitory assay; type: biochemical; settings: in vitro; standard acarbose; N.A * = Not active; read-out: α-Glucosidase IC50 (µM ±SEM)
Experimental: A procedure based on the previously reported procedure with minor modifications was used to determine the inhibitory capacity of the newly designed derivatives of benzothiazole-derived pyrazoline-based thiazole (1–17). For 20 min at 37 °C, […] in 100 mM of phosphate buffer (pH 6.8) for 20 min. The reaction mixture was then incubated for 1 h at 37 °C with 250 mL of 4-nitrophenyl-b-D-glucopyranoside solution and 250 mL of 1% starch dissolved in 100 mM of phosphate buffer (pH 6.8), respectively. Following this, the reaction mixture was heated for 10 min with 1.0 mL of 3,5-dinitrosalicylic acid colouring reagent. The absorbance of the final reaction mixture was determined for α-glucosidase at 405 nm. To correct the absorbance, a blank was prepared. […] A percentage of the inhibitory activity was calculated using a control sample without the inhibitors.

[2] = molecular target: urease (Canavalia ensiformis, UniProt P07374); assay: biochemical
Sequence of urease (P07374 whole entry, looked up): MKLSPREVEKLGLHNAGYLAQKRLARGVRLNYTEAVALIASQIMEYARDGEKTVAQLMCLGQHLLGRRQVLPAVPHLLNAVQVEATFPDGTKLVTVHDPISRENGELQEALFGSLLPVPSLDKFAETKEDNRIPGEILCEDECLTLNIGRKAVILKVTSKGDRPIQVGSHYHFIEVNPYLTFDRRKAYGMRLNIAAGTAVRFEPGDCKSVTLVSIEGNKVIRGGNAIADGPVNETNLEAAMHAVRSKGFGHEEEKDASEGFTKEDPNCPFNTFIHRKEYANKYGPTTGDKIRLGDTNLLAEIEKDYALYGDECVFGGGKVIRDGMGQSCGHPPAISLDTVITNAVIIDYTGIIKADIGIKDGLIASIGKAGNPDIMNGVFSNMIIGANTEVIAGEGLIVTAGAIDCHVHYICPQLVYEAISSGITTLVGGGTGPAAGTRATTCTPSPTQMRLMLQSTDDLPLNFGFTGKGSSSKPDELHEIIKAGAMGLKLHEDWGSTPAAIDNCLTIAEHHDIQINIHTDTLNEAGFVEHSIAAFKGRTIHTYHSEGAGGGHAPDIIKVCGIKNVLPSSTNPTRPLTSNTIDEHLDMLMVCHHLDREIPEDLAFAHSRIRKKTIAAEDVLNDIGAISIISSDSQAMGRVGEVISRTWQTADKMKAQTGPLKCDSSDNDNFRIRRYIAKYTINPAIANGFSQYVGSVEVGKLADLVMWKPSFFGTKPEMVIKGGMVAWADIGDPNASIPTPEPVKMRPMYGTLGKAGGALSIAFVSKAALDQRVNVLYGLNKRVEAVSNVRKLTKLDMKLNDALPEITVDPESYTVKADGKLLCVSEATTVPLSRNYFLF
Experimental: During the experiment, 55 L of buffer solution containing 100 mM of urea was combined with 25 L of enzyme solution to prepare reaction mixtures. A volume of 5 L containing 1 mM concentrations of recently produced compounds was then added to these mixtures. After 15 min of incubation at 30 °C, the reactions were allowed to occur in 96-well plates. The detection of ammonia generation by urease was carried out by using the Indophenol technique. A phenol reagent containing 1% w/v phenol and 0.005% w/v sodium nitroprusside was added to each well along with 70 µL of an alkali reagent containing 0.5% w/v NaOH and 0.1% active chloride NaOCl. Utilizing a microplate reader manufactured by Molecular Device in the United States, the increased absorbance was measured at 630 nm after another 50 min. In triplicate, the aforementioned procedures were performed using a constant end volume of […]. The final data, representing the rate at which the absorbance changed per minute, were analysed with the SoftMax Pro program by Molecular Device, New York, NY, USA. In alkaline conditions with a pH of 8.2, the experiments were conducted using 0.01 M K2HPO4·3H2O, 1 mM EDTA, and 0.01 M LiCl. A conventional inhibitor of urease, thiourea, was used in this study to determine the percentage of inhibition.

Row | SMILES | IC50 [1] [µM] | melting point [°C] | IC50 [2] [µM] | IC50 ([2]; in vitro, standard thiourea, N.A * = Not active, read-out: Urease IC50 (µM ± SEM)) [µM]
1 | O=[N+]([O-])c1ccccc1-c1csc(N2N=C(c3cc(Cl)cnc3Cl)CC2c2nc3ccccc3s2)n1 (stereo not shown) [Compound 5, 2-(3-(2,5-Dichloropyridin-3-yl)-1-(4-(2-nitrophenyl)thiazol-2-yl)-4,5-dihydro-1H-pyrazol-5-yl)benzo[d]thiazole] | 6.7 ± 0.3 | 224 to 225 | 32.5 ± 2.1 | 
2 | Fc1ccccc1-c1csc(N2N=C(c3cc(Cl)cnc3Cl)CC2c2nc3ccccc3s2)n1 (stereo not shown) [Compound 11, 2-(3-(2,5-Dichloropyridin-3-yl)-1-(4-(2-fluorophenyl)thiazol-2-yl)-4,5-dihydro-1H-pyrazol-5-yl)benzo[d]thiazole] |  | 221 to 222 |  | 
3 | O=[N+]([O-])c1ccc(-c2csc(N3N=C(c4cc(Cl)cnc4Cl)CC3c3nc4ccccc4s3)n2)cc1 (stereo not shown) [Compound 4, 2-(3-(2,5-Dichloropyridin-3-yl)-1-(4-(4-nitrophenyl)thiazol-2-yl)-4,5-dihydro-1H-pyrazol-5-yl)benzo[d]thiazole] | 4.1 ± 0.3 | 232 to 233 | 23.3 ± 2.4 | 
4 | Clc1cnc(Cl)c(C2=NN(c3nc(-c4ccc(OCc5ccccc5)cc4)cs3)C(c3nc4ccccc4s3)C2)c1 (stereo not shown) [Compound 13, 2-(1-(4-(4-(Benzyloxy)phenyl)thiazol-2-yl)-3-(2,5-dichloropyridin-3-yl)-4,5-dihydro-1H-pyrazol-5-yl)benzo[d]thiazole] |  | 242 to 243 |  | 
5 | FC(F)(F)c1ccc(-c2csc(N3N=C(c4cc(Cl)cnc4Cl)CC3c3nc4ccccc4s3)n2)cc1 (stereo not shown) [Compound 6, 2-(3-(2,5-Dichloropyridin-3-yl)-1-(4-(4-(trifluoromethyl)phenyl)thiazol-2-yl)-4,5-dihydro-1H-pyrazol-5-yl)benzo[d]thiazole] | 2.5 ± 0.3 | 225 to 226 | 14.3 ± 3.9 | 
6 | Fc1ccc(-c2csc(N3N=C(c4cc(Cl)cnc4Cl)CC3c3nc4ccccc4s3)n2)cc1 (stereo not shown) [Compound 12, 2-(3-(2,5-Dichloropyridin-3-yl)-1-(4-(4-fluorophenyl)thiazol-2-yl)-4,5-dihydro-1H-pyrazol-5-yl)benzo[d]thiazole] | 3.5 ± 0.1 | 226 to 227 | 22.3 ± 0.8 | 
7 | O=[N+]([O-])c1cc(Br)ccc1-c1csc(N2N=C(c3cc(Cl)cnc3Cl)CC2c2nc3ccccc3s2)n1 (stereo not shown) [Compound 1, 2-(1-(4-(4-Bromo-2-nitrophenyl)thiazol-2-yl)-3-(2,5-dichloropyridin-3-yl)-4,5-dihydro-1H-pyrazol-5-yl)benzo[d]thiazole] | 13.1 ± 0.4 | 233 to 234 | 41.5 ± 1.7 | 
8 | Clc1cnc(Cl)c(C2=NN(c3nc(-c4cccc(Cl)c4Cl)cs3)C(c3nc4ccccc4s3)C2)c1 (stereo not shown) [Compound 17, 2-(1-(4-(2,3-Dichlorophenyl)thiazol-2-yl)-3-(2,5-dichloropyridin-3-yl)-4,5-dihydro-1H-pyrazol-5-yl)benzo[d]thiazole] | 6.8 ± 0.2 | 236 to 237 | 31.3 ± 0.4 | 
9 | Oc1cc(F)ccc1-c1csc(N2N=C(c3cc(Cl)cnc3Cl)CC2c2nc3ccccc3s2)n1 (stereo not shown) [Compound 7, 2-(2-(5-(Benzo[d]thiazol-2-yl)-3-(2,5-dichloropyridin-3-yl)-4,5-dihydro-1H-pyrazol-1-yl)thiazol-4-yl)-5-fluorophenol] | 3.2 ± 0.1 | 228 to 229 | 19.2 ± 0.1 | 
10 | Cc1ccc(C)c(-c2csc(N3N=C(c4cc(Cl)cnc4Cl)CC3c3nc4ccccc4s3)n2)c1 (stereo not shown) [Compound 2, 2-(3-(2,5-Dichloropyridin-3-yl)-1-(4-(2,5-dimethylphenyl)thiazol-2-yl)-4,5-dihydro-1H-pyrazol-5-yl)benzo[d]thiazole] | 14.2 ± 0.1 | 219 to 220 | 37.2 ± 1.9 | 
11 | NC(N)=S [Thiourea, thiourea, reference compound] |  |  |  | 31.4 ± 2.5
12 | CN(C)c1ccc(-c2csc(N3N=C(c4cc(Cl)cnc4Cl)CC3c3nc4ccccc4s3)n2)cc1 (stereo not shown) [Compound 8, 4-(2-(5-(Benzo[d]thiazol-2-yl)-3-(2,5-dichloropyridin-3-yl)-4,5-dihydro-1H-pyrazol-1-yl)thiazol-4-yl)-N,N-dimethylaniline] |  | 231 to 232 | 39.2 ± 0.6 | 
13 | COc1ccc(OC)c(-c2csc(N3N=C(c4cc(Cl)cnc4Cl)CC3c3nc4ccccc4s3)n2)c1 (stereo not shown) [Compound 10, 2-(3-(2,5-Dichloropyridin-3-yl)-1-(4-(2,5-dimethoxyphenyl)thiazol-2-yl)-4,5-dihydro-1H-pyrazol-5-yl)benzo[d]thiazole] | 8.9 ± 0.2 | 234 to 235 | 33.7 ± 0.1 | 
14 | Oc1cc(Cl)cc(Cl)c1-c1csc(N2N=C(c3cc(Cl)cnc3Cl)CC2c2nc3ccccc3s2)n1 (stereo not shown) [Compound 14, 2-(2-(5-(Benzo[d]thiazol-2-yl)-3-(2,5-dichloropyridin-3-yl)-4,5-dihydro-1H-pyrazol-1-yl)thiazol-4-yl)-3,5-dichlorophenol] | 3.4 ± 0.1 | 238 to 239 | 21.8 ± 2.9 | 
15 | O=[N+]([O-])c1cc(Cl)ccc1-c1csc(N2N=C(c3cc(Cl)cnc3Cl)CC2c2nc3ccccc3s2)n1 (stereo not shown) [Compound 9, 2-(1-(4-(4-Chloro-2-nitrophenyl)thiazol-2-yl)-3-(2,5-dichloropyridin-3-yl)-4,5-dihydro-1H-pyrazol-5-yl)benzo[d]thiazole] | 4.4 ± 0.3 | 230 to 231 | 29.4 ± 0.1 | 
16 | Clc1cnc(Cl)c(C2=NN(c3nc(-c4ccc5ccccc5c4)cs3)C(c3nc4ccccc4s3)C2)c1 (stereo not shown) [Compound 16, 2-(3-(2,5-Dichloropyridin-3-yl)-1-(4-(naphthalen-2-yl)thiazol-2-yl)-4,5-dihydro-1H-pyrazol-5-yl)benzo[d]thiazole] |  | 243 to 244 |  | 
17 | Cc1ccc(-c2csc(N3N=C(c4cc(Cl)cnc4Cl)CC3c3nc4ccccc4s3)n2)cc1 (stereo not shown) [Compound 3, 2-(3-(2,5-Dichloropyridin-3-yl)-1-(4-(p-tolyl)thiazol-2-yl)-4,5-dihydro-1H-pyrazol-5-yl)benzo[d]thiazole] | 7.5 ± 0.1 | 227 to 228 | 33.2 ± 3.8 | 
18 | Cc1cc(-c2csc(N3N=C(c4cc(Cl)cnc4Cl)CC3c3nc4ccccc4s3)n2)cc(C)c1Br (stereo not shown) [Compound 15, 2-(1-(4-(4-Bromo-3,5-dimethylphenyl)thiazol-2-yl)-3-(2,5-dichloropyridin-3-yl)-4,5-dihydro-1H-pyrazol-5-yl)benzo[d]thiazole] |  | 221 to 222 |  | 
